# Values of other authors in patent publication US5583105A, “Oral pharmaceutical preparation” (Biogal Gyogyszerguar Rt, priority 1994, dated 1996).
# Details: in water
structure (smiles),measurement,value
"CCOC(=O)CC(O)(CC(=O)OCC)C(=O)OCC [triethylcitrate, triethyl-citrate]",concentration of aqueous solution formed,6.5%
